According to patent US8889711B2, “Pyrazolopyridine derivatives as anticancer agent” (Pierre Fabre Medicament, priority 2009, dated 2014):
pIC50: −log10 of the molar value.

Experiments:
ALK kinase = ALK kinase (Homo sapiens, UniProt Q9UM73); experiment: Test to measure ALK kinase inhibition (GST-PLCγ1 substrate, anti-phosphotyrosine ELISA, luminescence); type: biochemical; details: ALK kinase 180 ng/ml, 250 μM ATP, 30 minutes at 30° C.
Outline: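 GST-PLCγ1 substrate-coated plate; ALK at 180 ng/ml in Tris pH 7.5 buffer with MgCl2, DTT, β-glycerophosphate, orthovanadate and 250 μM ATP, 30 min at 30 °C, inhibitor typically 30 μM to 10 nM. Phosphotyrosine detected with HRP anti-phosphotyrosine antibody, luminescence read-out.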

karpas 299 cells = experiment: Measurement of inhibition of cell proliferation (Karpas), ATPlite; type: cell-based; details: Homo sapiens, KARPAS-299, 72 h
Outline: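 Karpas 299 cells seeded at 300 000 cells/ml, treated on Day 1 and incubated at 37° C under 5% CO2 for 72 h. Viability measured on Day 4 by ATPlite luminescence of ATP from viable cells. IC50 derived by non-linear sigmoid dose-response regression with variable Hill slope.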

ALK kinase, sequence (Q9UM73 19-1620): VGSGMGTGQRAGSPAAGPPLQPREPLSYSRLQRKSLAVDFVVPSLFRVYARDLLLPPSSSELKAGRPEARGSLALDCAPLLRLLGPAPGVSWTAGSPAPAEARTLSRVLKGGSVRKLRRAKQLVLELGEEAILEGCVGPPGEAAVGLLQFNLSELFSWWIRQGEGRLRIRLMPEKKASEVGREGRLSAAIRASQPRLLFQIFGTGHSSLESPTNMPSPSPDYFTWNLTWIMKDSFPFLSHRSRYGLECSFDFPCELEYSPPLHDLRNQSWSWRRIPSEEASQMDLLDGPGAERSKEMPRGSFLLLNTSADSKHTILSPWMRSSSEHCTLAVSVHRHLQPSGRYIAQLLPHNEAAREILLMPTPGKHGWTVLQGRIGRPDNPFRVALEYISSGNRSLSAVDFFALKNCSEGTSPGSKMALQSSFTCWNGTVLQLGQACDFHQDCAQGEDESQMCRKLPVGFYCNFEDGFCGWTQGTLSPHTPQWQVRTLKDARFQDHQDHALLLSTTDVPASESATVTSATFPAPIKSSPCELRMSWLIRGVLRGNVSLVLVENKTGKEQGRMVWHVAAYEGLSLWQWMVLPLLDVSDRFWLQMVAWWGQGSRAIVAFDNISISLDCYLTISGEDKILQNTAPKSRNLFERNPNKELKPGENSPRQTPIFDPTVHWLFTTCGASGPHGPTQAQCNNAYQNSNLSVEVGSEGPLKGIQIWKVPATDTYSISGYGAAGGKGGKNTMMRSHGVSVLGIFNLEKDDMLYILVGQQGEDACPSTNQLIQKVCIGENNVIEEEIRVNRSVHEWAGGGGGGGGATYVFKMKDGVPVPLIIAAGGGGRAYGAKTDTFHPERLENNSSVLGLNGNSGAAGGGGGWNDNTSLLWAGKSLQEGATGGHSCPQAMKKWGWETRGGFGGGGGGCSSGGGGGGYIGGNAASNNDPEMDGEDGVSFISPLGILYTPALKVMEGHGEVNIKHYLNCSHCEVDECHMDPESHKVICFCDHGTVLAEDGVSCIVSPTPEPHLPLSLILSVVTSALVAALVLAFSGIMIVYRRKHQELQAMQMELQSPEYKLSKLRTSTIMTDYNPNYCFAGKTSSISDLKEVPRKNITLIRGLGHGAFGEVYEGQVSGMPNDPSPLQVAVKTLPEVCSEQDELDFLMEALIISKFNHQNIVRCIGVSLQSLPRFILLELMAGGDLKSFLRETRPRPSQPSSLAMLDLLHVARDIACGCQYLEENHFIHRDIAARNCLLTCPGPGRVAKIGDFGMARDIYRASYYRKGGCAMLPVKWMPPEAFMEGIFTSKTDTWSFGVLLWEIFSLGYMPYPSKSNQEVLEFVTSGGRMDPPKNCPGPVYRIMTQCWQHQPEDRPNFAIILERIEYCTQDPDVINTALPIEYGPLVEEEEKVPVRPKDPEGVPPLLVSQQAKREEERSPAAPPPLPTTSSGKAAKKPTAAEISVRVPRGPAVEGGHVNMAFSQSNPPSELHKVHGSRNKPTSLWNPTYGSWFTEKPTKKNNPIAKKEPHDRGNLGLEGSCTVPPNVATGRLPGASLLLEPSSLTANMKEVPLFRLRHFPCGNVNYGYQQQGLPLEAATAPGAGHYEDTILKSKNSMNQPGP

Compound	pIC50 (ALK kinase)	pIC50 (karpas 299 cells)
Cc1n[nH]c2nc(-c3ccc(O)cc3F)c(C#N)c(-c3ccc(N4CCC(O)CC4)o3)c12 [Compound 153]	> 7.00	5.00 to 6.00
Cc1c(C#N)c(-c2ccc(O)cc2)nc2[nH]nc(-c3ccnc(N4CCN(C)CC4)c3)c12 [Compound 103]	6.00 to 7.00	< 5.00
Cc1n[nH]c2nc(-c3ccc(O)cc3F)c(C#N)c(-c3ccc(S(=O)(=O)O)o3)c12 [Compound 137]	6.00 to 7.00	< 5.00
CC(C)(C)c1n[nH]c2nc(-c3ccc(O)cc3F)c(C#N)c(-c3ccc(N4CCNCC4)cc3)c12 [Compound 230]	6.00 to 7.00	5.00 to 6.00
Cc1n[nH]c2nc(-c3ccc(O)cc3F)c(C#N)c(-c3ccc(C#N)cc3)c12 [Compound 148]	5.00 to 6.00	5.00 to 6.00
Cc1n[nH]c2nc(-c3ccc(O)cc3F)c(C#N)c(-c3ccc(OCCCN4CCNCC4)cc3)c12 [Compound 213]	> 7.00	5.00 to 6.00
N#Cc1c(-c2ccc(O)cc2F)nc2[nH]ncc2c1-c1ccc(-c2nn[nH]n2)cc1 [Compound 101]	5.00 to 6.00	5.00 to 6.00
N#Cc1c(-c2cncs2)nc2[nH]nc(-c3cccs3)c2c1-c1ccc(N2CCNCC2)cc1 [Compound 280]	5.00 to 6.00	5.00 to 6.00
N#Cc1c(-c2c(F)ccc(F)c2F)nc2[nH]nc(-c3ccco3)c2c1-c1ccc(N2CCOCC2)o1 [Compound 255]	5.00 to 6.00	5.00 to 6.00
Cc1n[nH]c2nc(-c3ccc(O)cc3)c(C#N)c(-c3ccc(-c4ccc(S(N)(=O)=O)cc4)o3)c12 [Compound 275]	6.00 to 7.00	< 5.00
COc1ccc(-c2n[nH]c3nc(-c4ccc(O)cc4F)c(C#N)c(-c4ccc(N5CCNCC5)cc4)c23)cc1 [Compound 198]	> 7.00	6.00 to 7.00
N#Cc1c(-c2ccc(O)cc2F)nc2[nH]nc(N)c2c1-c1ccc(C2CCNCC2)cc1 [Compound 195]	> 7.00	5.00 to 6.00
N#Cc1c(-c2ccc(O)cc2F)nc2[nH]nc(-c3ccccc3)c2c1-c1ccc(N2CCNCC2)cc1 [Compound 206]	> 7.00	6.00 to 7.00
Cc1n[nH]c2nc(-c3ccc([N+](=O)[O-])cc3F)c(C#N)c(-c3ccc(N4CCNCC4)cc3)c12 [Compound 158]	5.00 to 6.00	< 5.00
COC(=O)c1c(-c2ccc(O)cc2)nc2[nH]nc(C)c2c1-c1ccc(C)o1 [Compound 215]	> 7.00	6.00 to 7.00
Cc1cc(-c2nc3[nH]nc(N)c3c(-c3ccc(N4CCNCC4)cc3)c2C#N)ccc1O [Compound 187]	> 7.00	5.00 to 6.00
N#Cc1c(-c2cccc(O)c2)nc2[nH]nc(-c3cccs3)c2c1-c1ccc(N2CCNCC2)cc1 [Compound 231]	5.00 to 6.00	5.00 to 6.00
CC(C)(C)C(=O)Oc1ccc(-c2nc3[nH]nc(-c4cccs4)c3c(-c3ccc(N4CCNCC4)cc3)c2C#N)c(F)c1 [Compound 296]	6.00 to 7.00	6.00 to 7.00
Cc1n[nH]c2nc(-c3c(F)ccc(Cl)c3F)c(C#N)c(-c3ccc(N4CCNCC4)cc3)c12 [Compound 228]	6.00 to 7.00	5.00 to 6.00
N#Cc1c(-c2ccnc(O)c2)nc2[nH]nc(-c3cccs3)c2c1-c1ccc(N2CCNCC2)cc1 [Compound 282]	5.00 to 6.00	< 5.00
COC(=O)c1c(-c2ccc(O)cc2F)nc2[nH]nc(C)c2c1-c1ccc(N2CCNCC2)cc1 [Compound 284]	> 7.00	> 7.00
Cc1n[nH]c2nc(-c3ccc(O)cc3F)c(C#N)c(-c3ccc(N4CC[C@@H](N)C4)nc3)c12 [Compound 124]	> 7.00	5.00 to 6.00
